Experimental data as given in patent US20250215029A1 (Recludix Pharma, Inc., priority 2022, published 2025).
Like-named read-outs stand apart in the source and are kept apart here.

Tests used:
pY705-STAT3 in PBMC = target: T1, pY705-STAT3 in PBMC (Homo sapiens, UniProt P40763); assay: MSD-pSTAT-PBMC Assay (pSTAT3, IL-6 stimulated); format: cell-based; conditions: PBMC, compound 3 hrs, then 10 ng/mL IL-6 for 10 min
T1 construct: Cryopreserved Peripheral Blood Mononuclear Cells (PBMC) are from AllCells; host or cells: cryopreserved PBMC
T1 sequence (P40763 whole entry): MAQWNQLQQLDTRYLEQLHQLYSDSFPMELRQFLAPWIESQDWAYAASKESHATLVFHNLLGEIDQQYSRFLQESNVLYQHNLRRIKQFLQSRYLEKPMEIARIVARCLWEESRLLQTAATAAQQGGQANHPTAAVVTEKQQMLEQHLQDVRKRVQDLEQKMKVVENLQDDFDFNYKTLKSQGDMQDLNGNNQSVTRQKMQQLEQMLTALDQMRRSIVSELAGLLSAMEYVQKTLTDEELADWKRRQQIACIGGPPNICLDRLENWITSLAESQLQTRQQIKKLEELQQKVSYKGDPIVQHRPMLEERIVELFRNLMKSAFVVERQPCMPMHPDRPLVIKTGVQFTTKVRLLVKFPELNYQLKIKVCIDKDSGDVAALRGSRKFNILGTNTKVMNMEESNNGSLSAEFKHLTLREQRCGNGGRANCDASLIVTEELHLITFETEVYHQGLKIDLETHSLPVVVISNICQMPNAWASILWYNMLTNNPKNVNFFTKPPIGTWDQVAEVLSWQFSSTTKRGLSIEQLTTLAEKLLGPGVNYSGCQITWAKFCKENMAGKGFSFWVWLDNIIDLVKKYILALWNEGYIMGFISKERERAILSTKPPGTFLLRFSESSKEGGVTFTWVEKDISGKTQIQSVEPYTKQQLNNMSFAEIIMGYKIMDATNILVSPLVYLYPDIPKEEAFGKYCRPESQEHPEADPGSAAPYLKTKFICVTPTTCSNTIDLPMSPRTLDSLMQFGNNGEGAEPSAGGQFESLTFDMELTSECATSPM
Method in brief: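 pY705-STAT3 was detected electrochemiluminescently on total-STAT3 capture plates, using lysates of human PBMCs given compound for 3 h and then IL-6 (10 ng/mL, 10 min). Values were background-subtracted against unstimulated wells and set relative to DMSO. IC50 was fitted with variable slope.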

pY641-STAT6 in PBMC = target: T2, pY641-STAT6 in PBMC (Homo sapiens, UniProt P42226); assay: MSD-pSTAT-PBMC Assay (pSTAT6, IL-4 stimulated); format: cell-based; conditions: compound 3 hrs, then 1 ng/mL IL-4 for 10 min
T2 construct: Cryopreserved Peripheral Blood Mononuclear Cells (PBMC) are from AllCells; host or cells: cryopreserved PBMC
T2 sequence (P42226 1-847): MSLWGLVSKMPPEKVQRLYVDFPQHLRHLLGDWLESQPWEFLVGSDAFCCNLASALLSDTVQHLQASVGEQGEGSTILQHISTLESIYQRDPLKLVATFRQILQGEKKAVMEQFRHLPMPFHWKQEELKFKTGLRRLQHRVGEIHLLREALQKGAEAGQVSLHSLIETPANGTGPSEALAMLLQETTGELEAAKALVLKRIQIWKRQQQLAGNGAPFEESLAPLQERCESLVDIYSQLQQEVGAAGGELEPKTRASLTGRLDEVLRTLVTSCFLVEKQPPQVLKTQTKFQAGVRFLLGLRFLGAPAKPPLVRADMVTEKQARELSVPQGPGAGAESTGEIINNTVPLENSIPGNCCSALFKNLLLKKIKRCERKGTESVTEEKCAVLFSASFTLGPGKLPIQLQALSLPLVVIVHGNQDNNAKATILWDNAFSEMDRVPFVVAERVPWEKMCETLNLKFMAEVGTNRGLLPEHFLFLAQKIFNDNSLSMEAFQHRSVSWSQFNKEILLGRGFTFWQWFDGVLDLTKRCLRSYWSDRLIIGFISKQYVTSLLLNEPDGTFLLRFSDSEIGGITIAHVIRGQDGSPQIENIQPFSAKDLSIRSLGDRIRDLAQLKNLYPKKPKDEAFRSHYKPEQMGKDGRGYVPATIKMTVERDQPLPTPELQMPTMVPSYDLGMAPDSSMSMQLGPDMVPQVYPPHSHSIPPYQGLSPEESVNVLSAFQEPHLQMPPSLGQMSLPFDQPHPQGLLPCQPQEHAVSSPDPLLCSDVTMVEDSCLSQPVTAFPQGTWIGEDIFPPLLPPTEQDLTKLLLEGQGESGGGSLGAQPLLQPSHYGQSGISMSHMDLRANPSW
Method in brief: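 MSD electrochemiluminescence read-out: total STAT captured, probed with anti-pY641-STAT6 or anti-pY705-STAT3. Human PBMC, 3 h compound pretreatment, 10 min stimulation (IL-4 1 ng/mL or IL-6 10 ng/mL). Unstimulated signal subtracted, DMSO-normalized, variable-slope IC50.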

[1] = PBMC, Table 1114, read-out: pSTAT6

Row | Structure (SMILES) | IC50 (pY705-STAT3 in PBMC; Table 1114, read-out: pSTAT3) | IC50 (pY705-STAT3 in PBMC; Table 115, read-out: STAT3) | IC50 (pY641-STAT6 in PBMC; STAT6, PBMC, Table 115) | also measured
1 | CC(C)(C)C(=O)OCOP(=O)(OCOC(=O)C(C)(C)C)C(F)(F)c1ccc2sc(C(=O)N[C@H]3CCC[C@H]4CC[C@@H](C(=O)N5CC(c6cccnc6)C5)N4C3=O)cc2c1 [Compound 189, (((difluoro(2-(((3S,6S,9aS)-5-oxo-3-(3-(pyridin-3-yl)azetidine-1-carbonyl)octahydro-1H-pyrrolo[1,2-a]azepin-6-yl)carbamoyl)benzo[b]thiophen-5-yl)methyl)phosphoryl)bis (oxy))bis (methylene) bis(2,2-dimethyl-propanoate)] | < 100 nM |  |  | IC50 (pY641-STAT6 in PBMC; [1]): > 3000 nM
2 | CC(C)(C)C(=O)OCOP(=O)(OCOC(=O)C(C)(C)C)C(F)(F)c1ccc2sc(C(=O)N[C@H]3CCCC[C@H]4CC[C@@H](C(=O)N5CC6(CN(C(=O)Cc7ccccc7)C6)C5)N4C3=O)cc2c1 [Compound 191, (((difluoro(2-(((3S,6S,10aS)-5-oxo-3-(6-(2-phenylacetyl)-2,6-diazaspiro[3. 3]heptane-2-carbonyl)decahydro-pyrrolo [1,2-a]azocin-6-yl)carbamoyl)benzo[b]thiophen-5-yl)methyl)phosphoryl)bis (oxy))bis (methylene) bis(2,2-dimethyl-propanoate)] | < 100 nM |  |  | IC50 (pY641-STAT6 in PBMC; [1]): 100 to 1000 nM
3 | CC(C)(C)C(=O)OCOP(=O)(OCOC(=O)C(C)(C)C)C(F)(F)c1ccc2sc(C(=O)N[C@H]3CCCC[C@H]4CC[C@@H](C(=O)N5CCN(C(=O)c6cn[nH]c6)CC5)N4C3=O)cc2c1 [Compound 192, ((((2-(((3S,6S,10aS)-3-(4-(1H-pyrazole-4-carbonyl)piperazine-1-carbonyl)-5-oxodecahydro-pyrrolo[1,2-a]azocin-6-yl)carbamoyl)benzo[b]thiophen-5-yl)difluoro-methyl)phos-phoryl)bis(oxy)) bis(methylene) bis(2,2-dimethyl-propanoate)] | 100 to 1000 nM |  |  | IC50 (pY641-STAT6 in PBMC; [1]): 1000 to 3000 nM
4 | CC(C)OC(=O)[C@H](C)NP(=O)(Cc1ccc2sc(C(=O)N[C@H]3CCC[C@H]4CC[C@@H](C(=O)N5CC(c6cccnc6)C5)N4C3=O)cc2c1)Oc1ccccc1 (stereo partly drawn) [Compound 195, isopropyl (((2-(((3S,6S,9aS)-5-oxo-3-(3-(pyridin-3-yl)azetidine-1-carbonyl)octa-hydro-1H-pyrrolo[1,2-a]azepin-6-yl)carbamoyl)benzo[b]thiophen-5-yl)methyl) (phenoxy)phosphoryl)-L-alaninate] | 100 to 1000 nM |  |  | IC50 (pY641-STAT6 in PBMC; pSTAT6, PBMC, Table 1114): > 3000 nM
5 | CC(C)OC(=O)[C@H](C)NP(=O)(Oc1ccccc1)C(F)c1ccc2sc(C(=O)N[C@H]3CCC[C@H]4CC[C@@H](C(=O)N5CC(c6cccnc6)C5)N4C3=O)cc2c1 (stereo partly drawn) [Compound 196, isopropyl ((fluoro(2-(((3S,6S,9aS)-5-oxo-3-(3-(pyridin-3-yl)azetidine-1-carbonyl)octahydro-1H-pyrrolo[1,2-a]azepin-6-yl)carbamoyl)benzo[b]thiophen-5-yl)methyl) (phenoxy)phosphoryl)-L-alaninate] | 100 to 1000 nM |  |  | IC50 (pY641-STAT6 in PBMC; pSTAT6, PBMC, Table 1114): > 3000 nM
6 | CC(C)(CO)C(=O)SCCOP(=O)(Oc1ccccc1)C(F)(F)c1ccc2sc(C(=O)N[C@H]3CCC[C@H]4CC[C@@H](C(=O)N5CC(c6cccnc6)C5)N4C3=O)cc2c1 (stereo partly drawn) [Compound 201, S-(2-(((difluoro(2-(((3S,6S,9aS)-5-oxo-3-(3-(pyridin-3-yl)azetidine-1-carbonyl)octahydro-1H-pyrrolo[1,2-a]azepin-6-yl)carbamoyl)benzo[b]thiophen-5-yl)methyl) (phenoxy)phosphoryl)oxy)ethyl) 3-hydroxy-2,2-dimethyl-propanethioate] | 100 to 1000 nM |  |  | IC50 (pY641-STAT6 in PBMC; pSTAT6, PBMC, Table 1114): > 3000 nM
7 | CC(C)(C)C(=O)OCOP(=O)(OCOC(=O)C(C)(C)C)C(F)(F)c1ccc2sc(C(=O)N[C@H]3CCCC4CC[C@@H](C(=O)N5CC(N6CCOCC6)C5)N4C3=O)cc2c1 (stereo partly drawn) [Compound 249, (((difluoro(2-(((3S,6S)-3-(3-morpholinoazetidine-1-carbonyl)-5-oxooctahydro-1H-pyrrolo[1,2-a]azepin-6-yl)carbamoyl)benzo [b]thiophen-5-yl)methyl)phosphoryl)bis(oxy))bis (methylene) bis(2,2-dimethylpropanoate)] |  | < 100 nM |  | IC50 (pY641-STAT6 in PBMC; PBMC, Table 115, read-out: STAT6): 100 to 1000 nM
8 | CCCOC(=O)[C@H](C)NP(=O)(Cc1ccc2sc(C(=O)N[C@H]3CCC[C@H]4CC[C@@H](C(=O)N5CCC(c6cccnc6)C5)N4C3=O)cc2c1)Oc1ccccc1 (stereo partly drawn) [Compound 252, propyl (((2-(((3S,6S,9aS)-5-oxo-3-(3-(pyridin-3-yl)pyrrolidine-1-carbonyl)octahydro-1H-pyrrolo[1,2-a]azepin-6-yl)carbamoyl)benzo [b]thiophen-5-yl)methyl)(phenoxy)phosphoryl)-L-alaninate] |  | 1000 to 3000 nM | 100 to 1000 nM | 
9 | CCCOC(=O)[C@H](C)NP(=O)(Cc1ccc2sc(C(=O)N[C@H]3CCCC[C@H]4CC[C@@H](C(=O)N5CCC(c6cccnc6)C5)N4C3=O)cc2c1)Oc1ccccc1 (stereo partly drawn) [Compound 253, propyl (((2-(((3S,6S,10aS)-5-oxo-3-(3-(pyridin-3-yl)pyrrolidine-1-carbonyl)decahydropyrrolo[1,2-a]azocin-6-yl)carbamoyl)benzo [b]thiophen-5-yl)methyl)(phenoxy)phosphoryl)-L-alaninate] |  | > 3000 nM | 100 to 1000 nM | 
10 | CCCOC(=O)[C@H](C)NP(=O)(Cc1ccc2sc(C(=O)N[C@H]3CCC[C@H]4CC[C@@H](C(=O)N5CC(c6cnccc6OC)C5)N4C3=O)cc2c1)Oc1ccccc1 (stereo partly drawn) [Compound 255, propyl (((2-(((3S,6S,9aS)-3-(3-(4-methoxypyridin-3-yl)azetidine-1-carbonyl)-5-oxooctahydro-1H-pyrrolo[1,2-a]azepin-6-yl)carbamoyl)benzo [b]thiophen-5-yl)methyl)(phenoxy)phosphoryl)-L-alaninate] |  | < 100 nM | > 3000 nM | 
11 | CCCOC(=O)[C@H](C)NP(=O)(Oc1ccccc1)C(F)c1ccc2sc(C(=O)N[C@H]3CCC[C@H]4CC[C@@H](C(=O)N5CC(c6cnccc6OC)C5)N4C3=O)cc2c1 (stereo partly drawn) [Compound 262, propyl ((fluoro(2-(((3S,6S,9aS)-3-(3-(4-methoxypyridin-3-yl)azetidine-1-carbonyl)-5-oxooctahydro-1H-pyrrolo[1,2-a]azepin-6-yl)carbamoyl)benzo [b]thiophen-5-yl)methyl)(phenoxy)phosphoryl)-L-alaninate] |  | < 100 nM | > 3000 nM | 
12 | CCCOC(=O)[C@H](C)NP(=O)(Oc1ccccc1)C(F)c1ccc2sc(C(=O)N[C@H]3C[C@H](C)C[C@H]4CC[C@@H](C(=O)N5CC(c6cnccc6F)C5)N4C3=O)cc2c1 (stereo partly drawn) [Compound 263, propyl ((fluoro(2-(((3S,6S,8S,9aR)-3-(3-(4-fluoropyridin-3-yl)azetidine-1-carbonyl)-8-methyl-5-oxooctahydro-1H-pyrrolo[1,2-a]azepin-6-yl)carbamoyl)benzo [b]thiophen-5-yl)methyl)(phenoxy)phosphoryl)-L-alaninate] |  | < 100 nM | > 3000 nM | 
13 | CCCOC(=O)[C@H](C)NP(=O)(Cc1ccc2sc(C(=O)N[C@H]3CCCC[C@H]4CC[C@@H](C(=O)NCc5cnc6[nH]cnc6c5)N4C3=O)cc2c1)Oc1ccccc1 (stereo partly drawn) [Compound 280, propyl (((2-(((3S,6S,10aS)-3-(((3H-imidazo[4,5-b]pyridin-6-yl)methyl)carbamoyl)-5-oxodecahydropyrrolo [1,2-a]azocin-6-yl)carbamoyl)benzo [b]thiophen-5-yl)methyl)(phenoxy)phosphoryl)-L-alaninate] |  | < 100 nM | > 3000 nM | 
14 | CCCOC(=O)[C@H](C)NP(=O)(Cc1ccc2sc(C(=O)N[C@H]3C[C@@H](C)C[C@H]4CC[C@@H](C(=O)N5CC(c6cnccc6C)C5)N4C3=O)cc2c1)Oc1ccccc1 (stereo partly drawn) [Compound 284, propyl (((2-(((3S,6S,8R,9aR)-8-methyl-3-(3-(4-methylpyridin-3-yl)azetidine-1-carbonyl)-5-oxooctahydro-1H-pyrrolo[1,2-a]azepin-6-yl)carbamoyl)benzo [b]thiophen-5-yl)methyl)(phenoxy)phosphoryl)-L-alaninate] |  | < 100 nM | > 3000 nM | 
